In patent publication EP4592286A1, “MACROCYCLIC NITROGEN-CONTAINING CROWN ETHER COMPOUND AND USE THEREOF AS PROTEIN KINASE INHIBITOR” (Artivila Biopharma, priority 2022, dated 2024) one finds inhibition and IC50 data, which are given here for eight compounds.

Broadly, the inhibition is the change of the read-out against control, counted positive when it falls. In general, IC50 refers to the concentration that inhibits the measured activity by half.

Format in all cases: biochemical
The target in experiment [1] is LRRK2 (Homo sapiens, UniProt Q5S007). Put plainly: experiment of inhibiting kinase activity, LRRK2. The settings on record: for inhibition at 0.1 µM: at 100 nM; for inhibition at 0.1 µM / inhibition at 0.01 µM: read-out: inhibition rate LRRK2; for inhibition at 0.01 µM: at 10 nM; for IC50: kinase activity assay, Table 3. As for the experimental part: (§1) The inhibition rates of tested compounds on JAK1, JAK2, JAK3, TYK2, CDK7, CDK9, EGFR (T790M) and LRRK2 kinases were measured. The test concentrations of the compounds were 10 nM and 100 nM, and the detection was performed by replicate wells. Alternatively, compounds were 3-fold serial diluted from 10 µM for 10 concentrations in replicate wells.

The target in experiment [2] is T1, JAK3 (Homo sapiens, UniProt P52333).
T1 sequence (P52333 1-1124): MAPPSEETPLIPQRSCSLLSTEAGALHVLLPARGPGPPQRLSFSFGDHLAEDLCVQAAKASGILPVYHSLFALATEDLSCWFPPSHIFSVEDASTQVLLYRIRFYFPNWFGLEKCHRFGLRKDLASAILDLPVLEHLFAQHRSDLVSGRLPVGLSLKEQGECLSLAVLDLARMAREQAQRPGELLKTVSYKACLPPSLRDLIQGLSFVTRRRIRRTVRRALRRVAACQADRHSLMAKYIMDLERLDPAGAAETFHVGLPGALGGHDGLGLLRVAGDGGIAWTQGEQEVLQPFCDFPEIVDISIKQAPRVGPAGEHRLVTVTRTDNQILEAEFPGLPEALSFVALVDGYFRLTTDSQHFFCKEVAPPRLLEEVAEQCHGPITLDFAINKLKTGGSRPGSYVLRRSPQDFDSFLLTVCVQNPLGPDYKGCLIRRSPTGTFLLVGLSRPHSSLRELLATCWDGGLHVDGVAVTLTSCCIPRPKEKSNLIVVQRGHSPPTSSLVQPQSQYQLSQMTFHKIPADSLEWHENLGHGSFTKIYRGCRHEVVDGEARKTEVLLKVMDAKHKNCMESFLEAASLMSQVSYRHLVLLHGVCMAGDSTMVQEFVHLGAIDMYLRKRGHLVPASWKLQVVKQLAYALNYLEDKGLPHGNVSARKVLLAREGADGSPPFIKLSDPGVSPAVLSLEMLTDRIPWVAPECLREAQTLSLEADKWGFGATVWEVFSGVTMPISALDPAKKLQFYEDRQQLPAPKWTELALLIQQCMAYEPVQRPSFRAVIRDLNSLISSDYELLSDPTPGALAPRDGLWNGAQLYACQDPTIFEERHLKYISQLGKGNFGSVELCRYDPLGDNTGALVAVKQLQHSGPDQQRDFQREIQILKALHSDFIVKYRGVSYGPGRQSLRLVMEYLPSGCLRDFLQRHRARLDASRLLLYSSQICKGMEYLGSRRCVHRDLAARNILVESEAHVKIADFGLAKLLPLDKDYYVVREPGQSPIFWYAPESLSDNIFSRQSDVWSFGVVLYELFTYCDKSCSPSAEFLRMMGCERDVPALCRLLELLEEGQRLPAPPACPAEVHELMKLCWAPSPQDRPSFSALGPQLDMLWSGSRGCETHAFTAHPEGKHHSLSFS
Put plainly: experiment of inhibiting kinase activity (Caliper mobility shift assay), JAK3. The settings on record: for inhibition at 0.01 µM: at 10 nM; for inhibition at 0.01 µM / inhibition at 0.1 µM: read-out: inhibition rate JAK3; for inhibition at 0.1 µM: at 100 nM. An outline of the steps: (§2)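 Mobility-shift readout of substrate conversion; % inhibition normalized to uninhibited-enzyme wells (0%) and buffer-only background wells. Dosing: single points at 10 and 100 nM, or 3-fold series from 10 µM (10 conc.), replicates. Kinase + compound 10 min RT, then ATP/substrate.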

Experiment [3] concerns the target CDK9 (Homo sapiens, UniProt P50750). Kind of experiment: experiment of inhibiting kinase activity (Caliper mobility shift assay), CDK9. As to conditions: for inhibition at 0.1 µM: at 100 nM; for inhibition at 0.1 µM / inhibition at 0.01 µM: read-out: inhibition rate CDK9; for inhibition at 0.01 µM: at 10 nM. As for the experimental part: as §1
(§3) The inhibitory effects of the compounds on JAK1, JAK2, JAK3, CDK7 and CDK9 kinases were detected by the method of Caliper mobility shift assay. 250 nL of the compound at 100-fold final concentration was transferred to a destination plate 384-well-plate by using a liquid handler Echo 550. A kinase solution at 2.5-fold final concentration was prepared with 1×kinase buffer. 10 µL of the kinase solution with 2.5-fold final concentration was added to compound wells and positive control wells; and 10 µL of 1×kinase buffer was added to negative control wells. The mixture was centrifuged at 1000 rpm for 30 seconds and then incubated at room temperature for 10 minutes. A mixed solution of ATP and kinase substrate at 5/3-fold final concentration was prepared with 1×kinase buffer, and 15 µL of the mixed solution of ATP and substrate at 5/3-fold final concentration was added to start the reaction. The 384-well plate was centrifuged at 1000 rpm for 30 seconds, shaked and mixed evenly, then incubated at room temperature for a corresponding time. 30 µL of stop solution was added to stop the kinase reaction, the mixture was centrifuged at 1000 rpm for 30 seconds, and shaked and mixed evenly. The conversion rate was read by Caliper EZ Reader. The conversion inhibition rate%=(average positive control conversion rate%-sample conversion rate%)/(average positive control conversion rate%-average negative control conversion rate%). Where negative control wells represent the conversion readings of the background well of kinase buffer; and positive control wells represent the conversion readings of wells without compound inhibition. With the log value of concentration as the x axis and the percentage inhibition rate as the y axis, the dose-response curve was fitted by the log (inhibitor) vs. response-variable slope of the analyzing softwar GraphPad Prism 5, and the IC50 values of each compound on enzyme activity were obtained. Calculation formula is as follows: y=Bottom+(Top-Bottom)/(1+10^((LogIC50-x)×hillslope)), where x is logarithm of inhibitor concentration; and Y is % inhibition rate.

Experiment [4] addresses JAK1 (Homo sapiens, UniProt P23458). Put plainly: experiment of inhibiting kinase activity (Caliper mobility shift assay), JAK1. The settings on record: for inhibition at 0.1 µM: at 100 nM. Summed up: as §2
For experiment [5], the target named is CDK7 (Homo sapiens, UniProt P50613). Put plainly: experiment of inhibiting kinase activity (Caliper mobility shift assay), CDK7. The settings on record: read-out: inhibition rate CDK7; for inhibition at 0.01 µM: at 10 nM; for inhibition at 0.1 µM: at 100 nM. As for the experimental part: as §1, §3
The target in experiment [6] is JAK2 (Homo sapiens, UniProt O60674). Kind of experiment: experiment of inhibiting kinase activity (Caliper mobility shift assay), JAK2. As to conditions: for inhibition at 0.01 µM: at 10 nM; for inhibition at 0.01 µM / inhibition at 0.1 µM: read-out: inhibition rate JAK2; for inhibition at 0.1 µM: at 100 nM. An outline of the steps:
as §2

Experiment [7] concerns the target TYK2 (Homo sapiens, UniProt P29597). Kind of experiment: experiment of inhibiting kinase activity, TYK2. As to conditions: read-out: inhibition rate TYK2; for inhibition at 0.01 µM: at 10 nM; for inhibition at 0.1 µM: at 100 nM. On the procedure:
as §1

Bounds are passed on as bounds.

JAK2, sequence (O60674 whole entry): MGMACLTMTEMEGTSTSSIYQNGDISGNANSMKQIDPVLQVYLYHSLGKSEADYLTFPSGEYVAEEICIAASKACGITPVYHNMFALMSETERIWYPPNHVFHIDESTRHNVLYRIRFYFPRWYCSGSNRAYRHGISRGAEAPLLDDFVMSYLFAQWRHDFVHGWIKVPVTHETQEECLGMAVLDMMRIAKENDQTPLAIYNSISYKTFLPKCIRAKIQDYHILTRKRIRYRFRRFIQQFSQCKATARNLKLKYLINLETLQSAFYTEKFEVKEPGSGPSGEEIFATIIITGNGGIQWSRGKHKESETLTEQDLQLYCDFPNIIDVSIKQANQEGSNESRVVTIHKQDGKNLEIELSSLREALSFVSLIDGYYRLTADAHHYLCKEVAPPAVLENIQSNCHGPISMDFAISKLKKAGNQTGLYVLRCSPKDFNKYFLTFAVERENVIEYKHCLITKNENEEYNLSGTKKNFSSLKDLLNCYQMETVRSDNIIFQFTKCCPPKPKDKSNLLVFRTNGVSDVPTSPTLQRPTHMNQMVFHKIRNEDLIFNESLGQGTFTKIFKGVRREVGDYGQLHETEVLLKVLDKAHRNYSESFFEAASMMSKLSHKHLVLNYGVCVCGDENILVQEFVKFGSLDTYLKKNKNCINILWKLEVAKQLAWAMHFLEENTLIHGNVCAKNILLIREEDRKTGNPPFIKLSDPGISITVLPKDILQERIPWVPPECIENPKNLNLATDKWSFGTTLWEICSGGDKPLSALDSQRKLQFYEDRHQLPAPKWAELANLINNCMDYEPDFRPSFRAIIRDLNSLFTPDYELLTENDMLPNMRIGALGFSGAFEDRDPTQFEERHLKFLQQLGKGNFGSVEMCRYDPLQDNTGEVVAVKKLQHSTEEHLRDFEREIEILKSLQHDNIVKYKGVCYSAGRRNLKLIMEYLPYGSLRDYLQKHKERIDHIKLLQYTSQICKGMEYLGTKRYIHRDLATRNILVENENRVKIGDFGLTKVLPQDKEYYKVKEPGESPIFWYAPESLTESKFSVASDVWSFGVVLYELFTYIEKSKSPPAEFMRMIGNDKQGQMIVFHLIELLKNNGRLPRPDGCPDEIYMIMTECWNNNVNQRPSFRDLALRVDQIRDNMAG
CDK7, sequence (P50613 whole entry, species assumed): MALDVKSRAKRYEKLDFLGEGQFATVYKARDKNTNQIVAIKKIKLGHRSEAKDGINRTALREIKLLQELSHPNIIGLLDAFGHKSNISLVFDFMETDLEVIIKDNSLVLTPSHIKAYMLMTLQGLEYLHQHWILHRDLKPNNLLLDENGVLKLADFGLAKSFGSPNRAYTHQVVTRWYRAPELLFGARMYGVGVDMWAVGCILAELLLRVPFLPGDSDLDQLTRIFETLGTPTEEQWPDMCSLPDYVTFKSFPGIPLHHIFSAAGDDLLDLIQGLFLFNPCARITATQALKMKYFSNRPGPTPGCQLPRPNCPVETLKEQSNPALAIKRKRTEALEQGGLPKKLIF
CDK7, sequence (P51946 whole entry partner, species assumed): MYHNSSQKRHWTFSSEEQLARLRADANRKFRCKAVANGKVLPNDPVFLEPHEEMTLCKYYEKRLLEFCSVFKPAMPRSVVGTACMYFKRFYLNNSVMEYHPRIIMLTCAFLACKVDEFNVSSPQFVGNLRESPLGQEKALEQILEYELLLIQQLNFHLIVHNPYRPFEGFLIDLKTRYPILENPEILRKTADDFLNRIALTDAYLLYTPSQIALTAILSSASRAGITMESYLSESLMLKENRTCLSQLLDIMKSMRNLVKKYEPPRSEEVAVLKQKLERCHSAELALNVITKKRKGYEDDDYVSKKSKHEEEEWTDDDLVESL
CDK7, sequence (P51948 whole entry partner, species assumed): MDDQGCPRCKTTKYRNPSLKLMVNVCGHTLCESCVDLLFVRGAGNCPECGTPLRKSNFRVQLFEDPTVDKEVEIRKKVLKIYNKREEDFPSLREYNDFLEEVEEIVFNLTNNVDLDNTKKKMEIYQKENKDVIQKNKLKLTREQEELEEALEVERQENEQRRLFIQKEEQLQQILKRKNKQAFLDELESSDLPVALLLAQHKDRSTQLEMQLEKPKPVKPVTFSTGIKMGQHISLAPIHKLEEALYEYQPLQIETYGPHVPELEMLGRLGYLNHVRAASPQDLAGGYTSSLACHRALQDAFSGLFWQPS
TYK2, sequence (P29597 whole entry): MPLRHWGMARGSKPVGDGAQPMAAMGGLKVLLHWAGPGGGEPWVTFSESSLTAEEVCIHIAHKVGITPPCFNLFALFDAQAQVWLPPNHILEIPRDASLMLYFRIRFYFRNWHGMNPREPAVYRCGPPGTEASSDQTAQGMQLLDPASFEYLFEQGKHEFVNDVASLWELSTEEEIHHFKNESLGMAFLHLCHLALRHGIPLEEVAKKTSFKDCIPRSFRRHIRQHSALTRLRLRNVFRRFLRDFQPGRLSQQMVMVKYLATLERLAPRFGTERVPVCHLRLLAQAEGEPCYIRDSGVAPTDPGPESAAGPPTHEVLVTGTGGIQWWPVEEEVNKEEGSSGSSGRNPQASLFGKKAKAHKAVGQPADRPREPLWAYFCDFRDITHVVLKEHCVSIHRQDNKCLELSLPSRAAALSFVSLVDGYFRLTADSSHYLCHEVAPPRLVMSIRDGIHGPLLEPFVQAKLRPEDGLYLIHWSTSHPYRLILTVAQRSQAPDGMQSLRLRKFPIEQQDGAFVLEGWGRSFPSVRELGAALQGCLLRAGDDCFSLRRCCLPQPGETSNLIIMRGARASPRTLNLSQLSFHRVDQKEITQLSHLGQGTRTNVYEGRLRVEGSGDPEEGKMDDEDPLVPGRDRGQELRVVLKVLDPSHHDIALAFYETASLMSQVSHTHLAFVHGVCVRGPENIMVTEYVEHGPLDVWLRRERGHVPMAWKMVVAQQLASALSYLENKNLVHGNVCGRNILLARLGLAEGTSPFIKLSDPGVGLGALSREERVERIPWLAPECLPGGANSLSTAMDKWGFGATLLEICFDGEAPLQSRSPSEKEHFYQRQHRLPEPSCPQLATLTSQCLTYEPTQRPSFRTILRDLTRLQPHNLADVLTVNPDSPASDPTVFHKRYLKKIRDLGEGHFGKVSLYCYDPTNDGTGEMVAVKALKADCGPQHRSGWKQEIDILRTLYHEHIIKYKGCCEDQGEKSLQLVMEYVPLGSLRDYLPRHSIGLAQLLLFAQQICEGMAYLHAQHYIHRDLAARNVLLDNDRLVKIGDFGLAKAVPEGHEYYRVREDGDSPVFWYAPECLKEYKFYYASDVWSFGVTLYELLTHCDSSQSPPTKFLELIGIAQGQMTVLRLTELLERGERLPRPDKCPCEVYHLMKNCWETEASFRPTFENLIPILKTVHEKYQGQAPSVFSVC
CDK9, sequence (P50750 whole entry): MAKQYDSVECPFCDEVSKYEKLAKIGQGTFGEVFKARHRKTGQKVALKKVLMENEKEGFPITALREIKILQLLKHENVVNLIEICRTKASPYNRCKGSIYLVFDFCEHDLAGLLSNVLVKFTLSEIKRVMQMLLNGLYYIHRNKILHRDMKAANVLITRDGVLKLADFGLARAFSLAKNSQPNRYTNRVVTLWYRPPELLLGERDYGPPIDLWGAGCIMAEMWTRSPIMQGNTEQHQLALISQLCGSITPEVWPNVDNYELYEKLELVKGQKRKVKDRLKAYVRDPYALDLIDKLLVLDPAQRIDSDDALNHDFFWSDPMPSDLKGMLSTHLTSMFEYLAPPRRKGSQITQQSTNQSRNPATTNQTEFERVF
CDK9, sequence (O60563 whole entry partner): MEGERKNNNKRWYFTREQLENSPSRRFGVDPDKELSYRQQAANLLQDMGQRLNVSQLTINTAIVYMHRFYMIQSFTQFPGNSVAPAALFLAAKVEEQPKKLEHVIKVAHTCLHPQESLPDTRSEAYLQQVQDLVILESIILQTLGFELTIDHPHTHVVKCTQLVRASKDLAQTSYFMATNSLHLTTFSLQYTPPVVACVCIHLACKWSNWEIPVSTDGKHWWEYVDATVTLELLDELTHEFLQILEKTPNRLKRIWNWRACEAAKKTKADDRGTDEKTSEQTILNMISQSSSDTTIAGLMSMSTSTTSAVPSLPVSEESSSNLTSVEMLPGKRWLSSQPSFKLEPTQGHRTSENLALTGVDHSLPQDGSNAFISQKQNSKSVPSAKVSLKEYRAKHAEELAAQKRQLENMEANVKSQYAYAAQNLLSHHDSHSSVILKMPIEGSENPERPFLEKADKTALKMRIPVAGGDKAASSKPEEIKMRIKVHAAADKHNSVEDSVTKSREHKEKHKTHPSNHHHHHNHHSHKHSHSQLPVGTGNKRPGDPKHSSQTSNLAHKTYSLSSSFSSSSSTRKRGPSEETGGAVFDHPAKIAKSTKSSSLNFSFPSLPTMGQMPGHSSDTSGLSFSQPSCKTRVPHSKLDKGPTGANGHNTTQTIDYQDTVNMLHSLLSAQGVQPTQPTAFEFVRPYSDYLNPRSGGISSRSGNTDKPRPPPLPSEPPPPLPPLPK

Regarding `CC(C)S(=O)(=O)c1ccccc1Nc1nc(Nc2ccc3c(c2)OCCOCCN(S(C)(=O)=O)CCO3)nc2[nH]ccc12` [Example 99, N^4-(2-(isopropylsulfonyl)phenyl)-N^2-(7-(methylsulfonyl)-2,3,6,7,8,9-hexahydro-5H-benzo[b][1,4,7]trioxa[10]azacyclododecan-13-yl)-7H-pyrrolo[2,3-d]pyrimidin-2,4-diamine], the inhibition at 0.1 µM in experiment [1] is greater than 80%; in experiment [2], greater than 80%; in experiment [3], 25 to 39%; in experiment [4] (read-out: inhibition rate JAK1), 40 to 79%; in experiment [5], greater than 80%; in experiment [6], greater than 80%. Besides, the inhibition at 0.1 µM in experiment [7] was greater than 80%. Besides, the inhibition at 0.01 µM in experiment [2] lay within 40 to 79%; in experiment [4] (at 10 nM, read-out: inhibition rate JAK1), 25 to 39%; in experiment [5], 40 to 79%; in experiment [6] it was 40 to 79%; in experiment [7], 25 to 39%.

Regarding `CN1CCOCCOc2cc(Nc3ncc(F)c(Nc4ccc5[nH]ccc5c4)n3)ccc2OCC1` [Example 30, 5-fluoro-N^4-(1H-indol-5-yl)-N^2-(7-methyl-2,3,6,7,8,9-hexahydro-5H-benzo[b][1,4,7]trioxa[10]azacyclododecan-13-yl)pyrimidin-2,4-diamine], the inhibition at 0.1 µM in experiment [1] is 25 to 39%; in experiment [2] it was greater than 80%; in experiment [3], 40 to 79%; in experiment [4] (read-out: inhibition rate JAK1), 25 to 39%; in experiment [5], 40 to 79%; in experiment [6] it was greater than 80%. In addition, in experiment [7], the inhibition at 0.1 µM fell in the range of 40 to 79%. Moreover, the results for the inhibition at 0.01 µM in experiment [2] and in experiment [6] were 25 to 39% and 40 to 79%, respectively.

For `COc1ccc(F)cc1-c1nc(Nc2ccc3c(c2)OCCOCCN(C)CCO3)ncc1F` [Example 115, N-(5-fluoro-4-(5-fluoro-2-methoxyphenyl)pyrimidin-2-yl)-7-methyl-2,3,6,7,8,9-hexahydro-5H-benzo[b][1,4,7]trioxa[10]azacyclododecan-13-amine], the inhibition at 0.01 µM in experiment [3] lay in the range of 40 to 79%. For the same compound, the IC50 in experiment [3] (kinase activity assay, Table 3) is less than 50 nM.

As to `CC(C)S(=O)(=O)c1ccccc1Nc1nc(Nc2ccc3c(c2)OCCOCCN(C)CCO3)nc2[nH]cnc12` [Example 60, N^6-(2-(isopropylsulfonyl)phenyl)-N^2-(7-methyl-2,3,6,7,8,9-hexahydro-5H-benzo[b][1,4,7]trioxa[10]azacyclododecan-13-yl)-9H-purin-2,6-diamine], the inhibition at 0.01 µM is 40 to 79% in experiment [1], 40 to 79% in experiment [2], greater than 80% in experiment [5] and 40 to 79% in experiment [6]. In addition, the inhibition at 0.1 µM in experiment [1] was greater than 80%; in experiment [2], greater than 80%; in experiment [3], 40 to 79%; in experiment [5] it was greater than 80%; in experiment [6], greater than 80%; in experiment [7], 40 to 79%.

As for `CN1CCOc2ccc(Nc3ncc(F)c(-c4ccc(C(=O)NCC#N)cc4)n3)cc2OCC1` [Example 15, N-(Cyanomethyl)-4-(5-fluoro-2-((4-methyl-3,4,5,6-tetrahydro-2H-benzo[b][1,4,7]dioxazolin-9-yl)amino)pyrimidin-4-yl)benzamide], the inhibition at 0.1 µM in experiment [1] is 40 to 79%; in experiment [3], 40 to 79%; in experiment [4] (read-out: inhibition rate JAK1) it was 40 to 79%; in experiment [6], greater than 80%; in experiment [7], greater than 80%. The IC50 in experiment [1] is 50 to 200 nM; in experiment [2] (kinase activity assay, Table 3), less than 50 nM; in experiment [4] (kinase activity assay, Table 3), less than 50 nM; in experiment [6] (kinase activity assay, Table 3), less than 50 nM. Moreover, the inhibition at 0.01 µM in experiment [6] lay in the range of 40 to 79%; in experiment [7], 25 to 39%.

As for `CN1CCOCCOc2cc(Nc3nc(Nc4ccccc4P(C)(C)=O)c4cc[nH]c4n3)ccc2OCC1` [Example 32, dimethyl(2-((2-((7-methyl-2,3,6,7,8,9-hexahydro-5H-benzo[b][1,4,7]trioxa[10]azacyclododecan-13-yl)amino)-7H-pyrrolo[2,3-d]pyrimidin-4-yl)amino)phenyl)phosphine oxide], the inhibition at 0.01 µM is greater than 80% in experiment [1], greater than 80% in experiment [2], 40 to 79% in experiment [6] and 25 to 39% in experiment [7]. The inhibition at 0.1 µM in experiment [1] was greater than 80%; in experiment [2] it was greater than 80%; in experiment [3], 25 to 39%; in experiment [5], 40 to 79%; in experiment [6], greater than 80%; in experiment [7], 40 to 79%. This compound had a concentration for half-maximal inhibition (IC50) in experiment [1] of less than 50 nM.

In the case of `Cc1nc2c(F)cc(-c3nc(Nc4ccc5c(c4)OCCOCCN(C)CCO5)nc4[nH]ccc34)cc2n1C(C)C` [Example 31, N-(4-(4-fluoro-1-isopropyl-2-methyl-1H-benzo[d]imidazol-6-yl)-7H-pyrrolo[2,3-d]pyrimidin-2-yl)-7-methyl-2,3,6,7,8,9-hexahydro-5H-benzo[b][1,4,7]trioxa[10] azacyclododecan-13-amine], the inhibition at 0.01 µM lay within 40 to 79% in experiment [1], 40 to 79% in experiment [2], 25 to 39% in experiment [3] and 40 to 79% in experiment [6]. Also, the inhibition at 0.1 µM in experiment [1] is greater than 80%; in experiment [2], greater than 80%; in experiment [3] it was 40 to 79%; in experiment [5] it was 40 to 79%; in experiment [6] it was greater than 80%; in experiment [7], 40 to 79%.

`CN1CCOc2ccc(Nc3nc(NCCP(C)(C)=O)c4cc[nH]c4n3)cc2OCC1` [Example 85, dimethyl(2-((2-((4-methyl-3,4,5,6-tetrahydro-2H-benzo[b][1,4,7]dioxazolin-9-yl)amino)-7H-pyrrolo[2,3-d]pyrimidin-4-yl)amino)ethyl)phosphine oxide] came in with an IC50 in experiment [1] of less than 50 nM. In addition, the inhibition at 0.1 µM in experiment [3] was greater than 80%.
